Earlier results as cited in PubChem BioAssay AID1259410 (Chemical Carcinogenesis Research Information System (CCRIS), 2018).

Tested on: rodent tumor promotion studies, tumor incidence
Experiment: CCRIS tumor promotion studies

CCO
outcome (Carcinogen: 1,2-DIMETHYLHYDRAZINE [540-73-8], Doses [Carcinogen]: 21 MG/KG WEEKLY FOR 18 WKS, Doses [Promoter]: 1.23 G/KG ADDED TO DRINKING WATER DAILY FOR 25-27 WKS, Route [Carcinogen]: SUBCUTANEOUS, Route [Promoter]: ORAL (DRINKING WATER), Species: RAT, Strain/Sex: SPRAGUE-DAWLEY/MALE, FEMALE): negative
outcome (Carcinogen: 1,2-DIMETHYLHYDRAZINE, 540-73-8, Doses [Carcinogen]: 30 MG/KG BW 1/WK FOR 4 WK, Doses [Promoter]: 0, 6.6% OF LIQUID DIET BEGINNING 4 WK PRIOR TO CARCINOGEN TREATMENT LIQUID DIETS SUSPENDED FOR 3 WK DURING CARCINOGEN TR, Route [Carcinogen]: SUBCUTANEOUS, Route [Promoter]: ORAL, Species: RAT, Strain/Sex: SPRAGUE-DAWLEY/MALE): rectum: tumors
outcome (Carcinogen: 4-(METHYLNITROSAMINO)-1-(3-PYRIDYL)-1-BUTANONE, 64091-91-4, Doses [Carcinogen]: 0, 50 MG/KG IN DISTILLED WATER ADMINISTERED INTRATRACHEALLY TO MOTHERS ON DAY 15 OF GESTATION, Doses [Promoter]: 10% IN DRINKING WATER ADMINISTERED IN DRINKING WATER TO MOTHERS ON DAYS 5 THROUGH 16 OF PREGNANCY (STUDY DURATION: 48 WK, Route [Carcinogen]: TRANSPLACENTAL, Route [Promoter]: TRANSPLACENTAL, Species: HAMSTER, Strain/Sex: SYRIAN/FEMALE): nasal cavity: tumor; pancreas: tumor; adrenal gland: tumor
outcome (Carcinogen: 4-(METHYLNITROSAMINO)-1-(3-PYRIDYL)-1-BUTANONE, 64091-91-4, Doses [Carcinogen]: 0, 50 MG/KG IN DISTILLED WATER ADMINISTERED INTRATRACHEALLY TO MOTHERS ON DAY 15 OF GESTATION, Doses [Promoter]: 10% IN DRINKING WATER ADMINISTERED IN DRINKING WATER TO MOTHERS ON DAYS 5 THROUGH 16 OF PREGNANCY (STUDY DURATION: 48 WK, Route [Carcinogen]: TRANSPLACENTAL, Route [Promoter]: TRANSPLACENTAL, Species: HAMSTER, Strain/Sex: SYRIAN/MALE): pancreas: tumor; adrenal gland: tumor
outcome (Carcinogen: 4-(METHYLNITROSAMINO)-1-(3-PYRIDYL)-1-BUTANONE, 64091-91-4, Doses [Carcinogen]: 20 MMOL/KG (TOTAL DOSE) 3/WK FOR 4 WK, Doses [Promoter]: 0, 7% (V/V) IN LIQUID DIET FOR 50 WK BEGINNING 1 WK POST CARCINOGEN TREATMENT (STUDY DURATION: 55 WK), Route [Carcinogen]: GAVAGE, Route [Promoter]: ORAL, Species: RAT, Strain/Sex: F344/MALE): esophagus: tumor; oral cavity: tumor; lung: tumor
outcome (Carcinogen: 7,12-DIMETHYLBENZ[A]ANTHRACENE, 57-97-6, Doses [Carcinogen]: 1% PAINTED ON RIGHT BUCCAL POUCH 1/2 D FOR 1 WK, Doses [Promoter]: 0, 5% IN LIQUID DIET BEGINNING 1 WK POST CARCINOGEN TREATMENT AND CONTINUING FOR 35 WK (STUDY DURATION: 35 WK), Route [Carcinogen]: MUCOUS MEMBRANE, Route [Promoter]: ORAL, Species: HAMSTER, Strain/Sex: SYRIAN/MALE): buccal pouch: epidermoid carcinoma
outcome (Carcinogen: 17ALPHA-ETHYNYLESTRADIOL, 57-63-6, NORETHINDRONE ACETATE, 51-98-9, Carcinogen: 17ALPHA-ETHYNYLESTRADIOL, 57-63-6, NORETHINDRONE ACETATE, 51-98-9, Doses [Carcinogen]: 0.075 MG EE AND 6 MG NA IN 0.5 ML OLIVE OIL 1/D FOR 12 MO, Doses [Promoter]: 0, 10% IN DRINKING WATER 5 D/WK FOR 12 MO (STUDY DURATION: 12 MO), Route [Carcinogen]: GAVAGE, GAVAGE, Route [Promoter]: ORAL, Species: RAT, Strain/Sex: WISTAR/FEMALE): liver: hepatocellular carcinoma
outcome (Carcinogen: DIETHYLNITROSAMINE, 55-18-5, Doses [Carcinogen]: 33, 50 PPM IN DRINKING WATER FOR 8 WK, Doses [Promoter]: 10% IN DRINKING WATER FOR 8 WK ADMINISTERED WITH CARCINOGEN (STUDY DURATION: 104 WK), Route [Carcinogen]: ORAL, Route [Promoter]: ORAL, Species: RAT, Strain/Sex: F344/MALE): esophagus: papilloma or carcinoma
outcome (Carcinogen: Diethylnitrosamine, 55-18-5, Doses [Carcinogen]: 40 mg/l for 4 consecutive d/wk for 180 days, study duration 180 d, Doses [Promoter]: 6%, 3 d /wk for 180 d, study duration 180 d, Route [Carcinogen]: Oral (drinking water), Route [Promoter]: Oral (drinking water), Species: Mouse, Strain/Sex: CF1/Female (16, 47/Group)): stomach: squamous cell carcinoma (33% vs 30%); adenocarcinoma (17% vs 15%); both
outcome (Carcinogen: METHYLAZOXYMETHANOL ACETATE, 592-62-1, Doses [Carcinogen]: 25 MG/KG IN SALINE 1/WK FOR 2 WK, Doses [Promoter]: 0.10% IN DRINKING WATER FOR 393 D BEGINNING 1 WK POST CARCINOGEN DOSE (STUDY DURATION: 414 D), Route [Carcinogen]: INTRAPERITONEAL, Route [Promoter]: ORAL, Species: RAT, Strain/Sex: ACI/MALE): large intestine: adenoma, adenocarcinoma
outcome (Carcinogen: N6-(METHYLNITROSO)ADENOSINE, 21928-82-5, Doses [Carcinogen]: 180 MG/KG 3/WK FOR 12 WK, Doses [Promoter]: 0, 15% 3/WK FOR 12 WK ADMINISTERED WITH CARCINOGEN (STUDY DURATION: 18 MO), Route [Carcinogen]: GAVAGE, Route [Promoter]: GAVAGE, Species: MOUSE, Strain/Sex: SWISS/FEMALE): thymus: lymphoma
outcome (Carcinogen: N'-NITROSONORNICOTINE, 16543-55-8, Doses [Carcinogen]: 40 MMOL/KG (TOTAL DOSE) 3/WK FOR 4 WK, Doses [Promoter]: 0, 7% (V/V) IN LIQUID DIET FOR 50 WK BEGINNING 1 WK POST CARCINOGEN TREATMENT (STUDY DURATION: 55 WK), Route [Carcinogen]: GAVAGE, Route [Promoter]: ORAL, Species: RAT, Strain/Sex: F344/MALE): esophagus: tumor; oral cavity: tumor; lung: tumor
outcome (Carcinogen: N-METHYL-N'-NITRO-N-NITROSOGUANIDINE, 70-25-7, Doses [Carcinogen]: 50 UG/ML IN DRINKING WATER FOR 20 WK, Doses [Promoter]: 0, 2.5 ML/KG BW OF 20% AGENT IN 0.9% SALINE SOLUTION 1/2D BEGINNING 1 WK POST LAST CARCINOGEN DOSE AND CONTINUING FOR DU, Route [Carcinogen]: ORAL, Route [Promoter]: INTRAPERITONEAL, Species: RAT, Strain/Sex: WISTAR/MALE): stomach: adenocarcinoma
outcome (Carcinogen: N-METHYL-N-NITROSOUREA, 684-93-5, Doses [Carcinogen]: 30 MG/KG BW ONCE AT 50 D OF AGE, Doses [Promoter]: 0, 15% OF CALORIES IN DIET FOR 4 WK BEGINNING 3 WK PRIOR TO CARCINOGEN DOSE (STUDY DURATION: 25 WK), Route [Carcinogen]: INTRAPERITONEAL, Route [Promoter]: ORAL, Species: RAT, Strain/Sex: SPRAGUE-DAWLEY/FEMALE): mammary gland: adenocarcinoma
outcome (Carcinogen: N-METHYL-N-NITROSOUREA, 684-93-5, Doses [Carcinogen]: 30 MG/KG BW ONCE AT 51 D OF AGE, Doses [Promoter]: 0, 15%, 20% OF CALORIES IN DIET BEGINNING 1 WK POST CARCINOGEN DOSE AND CONTINUING FOR DURATION OF STUDY (STUDY DURATION, Doses [Promoter]: 0, 15%, 20% OF CALORIES IN DIET BEGINNING 1 WK POST CARCINOGEN DOSE AND CONTINUING FOR DURATION OF STUDY (STUDY DURATION, Route [Carcinogen]: INTRAPERITONEAL, Route [Promoter]: ORAL, Species: RAT, Strain/Sex: SPRAGUE-DAWLEY/FEMALE): mammary gland: adenocarcinoma
outcome (Carcinogen: N-NITROSODIMETHYLAMINE, 62-75-9, Doses [Carcinogen]: 1 PPM IN DRINKING WATER FOR 48 OR 72 WK, Doses [Promoter]: 0, 10% IN DRINKING WATER FOR 48 OR 72 WK (STUDY DURATION: 72 WK), Route [Carcinogen]: ORAL, Route [Promoter]: ORAL, Species: MOUSE, Strain/Sex: STRAIN-A/MALE): lung: tumor
outcome (Carcinogen: N-NITROSODIMETHYLAMINE, 62-75-9, Doses [Carcinogen]: 5 MG/KG ONCE, Doses [Promoter]: 0, 5, 10, 20% SOLUTION ADMINISTERED WITH CARCINOGEN DOSE (STUDY DURATION: 16 WK), Doses [Promoter]: 0, 5, 10, 20% SOLUTION ADMINISTERED WITH CARCINOGEN DOSE (STUDY DURATION: 16 WK), Route [Carcinogen]: GAVAGE, Route [Promoter]: GAVAGE, Species: MOUSE, Strain/Sex: STRAIN-A/MALE): lung: tumor
outcome (Carcinogen: N-NITROSODIMETHYLAMINE, 62-75-9, Doses [Carcinogen]: 5 PPM IN DRINKING WATER FOR 4 WK, Doses [Promoter]: 0, 1, 5, 10% IN DRINKING WATER FOR 4 WK (STUDY DURATION: 16 WK), Doses [Promoter]: 0, 1, 5, 10% IN DRINKING WATER FOR 4 WK (STUDY DURATION: 16 WK), Route [Carcinogen]: ORAL, Route [Promoter]: ORAL, Species: MOUSE, Strain/Sex: STRAIN-A/MALE): lung: tumor
outcome (Carcinogen: N-NITROSOMETHYLBENZYLAMINE, 937-40-6, Doses [Carcinogen]: 0.2 MG/KG BW IN CORN OIL 3/WK FOR 3 WK, Doses [Promoter]: 0, 30% OF TOTAL CALORIES BEGINNING POST CARCINOGEN TREATMENT AND CONTINUING FOR DURATION OF STUDY (STUDY DURATION: 23 WK, Route [Carcinogen]: GAVAGE, Route [Promoter]: ORAL, Species: MOUSE, Strain/Sex: C57BL/FEMALE): esophagus: tumor
outcome (Carcinogen: N-NITROSOMETHYLBENZYLAMINE, 937-40-6, Doses [Carcinogen]: 0.2 MG/KG IN CORN OIL 3/WK FOR 3 WK, Doses [Promoter]: SUBSTITUTED FOR MALTOSE DEXTRIN IN DIET TO PROVIDE 30% OF TOTAL DIETARY CALORIES BEGINNING POST CARCINOGEN TREATMENT AND, Route [Carcinogen]: GAVAGE, Route [Promoter]: ORAL, Species: MOUSE, Strain/Sex: C57BL/FEMALE): esophagus: tumor
outcome (Carcinogen: N-NITROSOMETHYLBENZYLAMINE, 937-40-6, Doses [Carcinogen]: 2.5 MG/KG 3/WK FOR 3 WK, Doses [Promoter]: 1-2% IN LIQUID DIET ON DAY 1 AND INCREASING TO 7% BY DAY 8 OF AGENT TREATMENT BEGINNING 1 WK POST LAST CARCINOGEN DOSE F, Route [Carcinogen]: INTRAPERITONEAL, Route [Promoter]: ORAL, Species: RAT, Strain/Sex: SPRAGUE-DAWLEY/MALE): esophagus: papilloma
outcome (Carcinogen: N-NITROSOPYRROLIDINE, 930-55-2, Doses [Carcinogen]: 6.8 PPM IN DRINKING WATER FOR 4 WK, Doses [Promoter]: 0, 10% IN STERILIZED DISTILLED DRINKING WATER ADMINISTERED WITH CARCINOGEN FOR 4 WK (STUDY DURATION: 36 WK), Route [Carcinogen]: ORAL, Route [Promoter]: ORAL, Species: MOUSE, Strain/Sex: STRAIN-A/MALE): lung: tumor
outcome (Carcinogen: N-NITROSOPYRROLIDINE, 930-55-2, Doses [Carcinogen]: 40 PPM IN DRINKING WATER FOR 4 WK, Doses [Promoter]: 0, 10% IN STERILIZED DISTILLED DRINKING WATER ADMINISTERED WITH CARCINOGEN FOR 4 WK (STUDY DURATION: 36 WK), Route [Carcinogen]: ORAL, Route [Promoter]: ORAL, Species: MOUSE, Strain/Sex: STRAIN-A/MALE): lung: tumor
outcome (Carcinogen: NITROSODIETHYLAMINE, 55-18-5, Doses [Carcinogen]: 6.8 PPM IN DRINKING WATER FOR 4 WK, Doses [Promoter]: 0, 10% IN STERILIZED DISTILLED DRINKING WATER ADMINISTERED WITH CARCINOGEN FOR 4 WK (STUDY DURATION: 36 WK), Route [Carcinogen]: ORAL, Route [Promoter]: ORAL, Species: MOUSE, Strain/Sex: STRAIN-A/MALE): lung: tumor; forestomach: carcinoma
outcome (Doses [Carcinogen]: 1.5 MG/KG IN DMSO 2/WK FOR 10 WK (TOTAL DOSE: 30 MG/KG), Doses [Promoter]: 10% IN DRINKING WATER FOR 56 WK ADMINISTERED 1 WK POST CARCINOGEN DOSES (STUDY DURATION: 57 WK), Route [Carcinogen]: INTRAPERITONEAL, Route [Promoter]: ORAL, Species: RAT, Strain/Sex: ACI/N/MALE): liver: hepatocellular carcinoma, neoplastic nodule
